Measurements as given in ChEMBL document CHEMBL1743341, “Cytochrome p450 enzymes mechanism based inhibitors: common sub-structures and reactivity” (Curr Drug Metab, 2005).
One block for each compound: values may come before it.

How the values were obtained:
Assay type in all cases: ADME
Cytochrome P450 1A1 [1] = target: T1, Cytochrome P450 1A1 (Homo sapiens, UniProt P04798); assay: (§1) Mechanism based inhibition of human cytochrome P450 1A1 measured by 7-ethoxyresorufin O-deethylation (EROD)
T1 sequence (P04798 whole entry): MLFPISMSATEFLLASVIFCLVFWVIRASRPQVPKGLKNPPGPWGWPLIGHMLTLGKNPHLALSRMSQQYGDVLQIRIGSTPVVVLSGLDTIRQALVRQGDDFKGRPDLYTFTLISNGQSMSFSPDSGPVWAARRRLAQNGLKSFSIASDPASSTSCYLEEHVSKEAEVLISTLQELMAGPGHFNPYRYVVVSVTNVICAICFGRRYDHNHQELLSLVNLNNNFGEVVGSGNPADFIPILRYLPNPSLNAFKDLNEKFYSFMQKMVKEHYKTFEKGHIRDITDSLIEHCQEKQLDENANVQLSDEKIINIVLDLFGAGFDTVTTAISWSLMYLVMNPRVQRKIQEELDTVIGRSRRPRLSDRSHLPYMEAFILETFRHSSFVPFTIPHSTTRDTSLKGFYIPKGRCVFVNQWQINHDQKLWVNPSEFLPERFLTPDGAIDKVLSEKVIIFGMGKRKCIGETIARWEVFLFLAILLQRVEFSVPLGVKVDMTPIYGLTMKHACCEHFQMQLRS

Cytochrome P450 1A2 [2] = target: T2, Cytochrome P450 1A2 (Homo sapiens, UniProt P05177); assay: Mechanism based inhibition of human cytochrome P450 1A2 measured by 7-ethoxyresorufin O-deethylation (EROD)
T2 sequence (P05177 whole entry): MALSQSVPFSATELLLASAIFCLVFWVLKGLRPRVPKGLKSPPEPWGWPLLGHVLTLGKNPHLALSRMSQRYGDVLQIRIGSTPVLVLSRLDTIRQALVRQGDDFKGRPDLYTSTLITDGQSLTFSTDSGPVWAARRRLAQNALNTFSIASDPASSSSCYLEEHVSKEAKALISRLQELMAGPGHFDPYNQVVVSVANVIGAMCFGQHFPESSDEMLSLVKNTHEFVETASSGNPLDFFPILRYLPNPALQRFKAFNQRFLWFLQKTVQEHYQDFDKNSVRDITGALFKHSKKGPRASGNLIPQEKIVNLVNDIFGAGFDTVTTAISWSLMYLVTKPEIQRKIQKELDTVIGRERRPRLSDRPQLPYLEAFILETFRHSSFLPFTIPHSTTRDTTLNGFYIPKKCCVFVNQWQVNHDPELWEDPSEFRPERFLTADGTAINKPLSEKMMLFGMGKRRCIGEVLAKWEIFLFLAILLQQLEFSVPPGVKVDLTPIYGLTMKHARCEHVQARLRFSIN

Cytochrome P450 1B1 = target: T3, Cytochrome P450 1B1 (Homo sapiens, UniProt Q16678); assay: Mechanism based inhibition of human cytochrome P450 1B1 measured by 7-ethoxyresorufin O-deethylation (EROD)
T3 sequence (Q16678 whole entry): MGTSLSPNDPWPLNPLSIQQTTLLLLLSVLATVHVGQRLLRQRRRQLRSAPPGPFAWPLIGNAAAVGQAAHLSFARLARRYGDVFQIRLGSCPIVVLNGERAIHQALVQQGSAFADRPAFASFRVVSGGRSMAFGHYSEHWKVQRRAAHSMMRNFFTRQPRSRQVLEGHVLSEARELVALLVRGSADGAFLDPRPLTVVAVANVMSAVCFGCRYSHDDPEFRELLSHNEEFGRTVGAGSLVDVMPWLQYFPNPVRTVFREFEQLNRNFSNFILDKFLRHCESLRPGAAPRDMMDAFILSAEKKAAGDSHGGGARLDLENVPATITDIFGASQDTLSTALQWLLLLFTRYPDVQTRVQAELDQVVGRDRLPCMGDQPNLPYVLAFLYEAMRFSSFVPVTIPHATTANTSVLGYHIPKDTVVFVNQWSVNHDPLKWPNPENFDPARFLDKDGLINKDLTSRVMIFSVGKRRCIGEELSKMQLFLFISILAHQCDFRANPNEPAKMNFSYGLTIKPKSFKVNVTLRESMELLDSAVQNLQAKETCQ

CYP2B1 [3] = target: T4, CYP2B1 (Rattus norvegicus, UniProt P00176); assay: (§2) Mechanism based inhibition of rat cytochrome P450 CYP2B1 measured by 7-ethoxycoumarin O-deethylase activity; details: rat, probe 7-ethoxycoumarin (O-deethylase activity)
T4 sequence (P00176 whole entry): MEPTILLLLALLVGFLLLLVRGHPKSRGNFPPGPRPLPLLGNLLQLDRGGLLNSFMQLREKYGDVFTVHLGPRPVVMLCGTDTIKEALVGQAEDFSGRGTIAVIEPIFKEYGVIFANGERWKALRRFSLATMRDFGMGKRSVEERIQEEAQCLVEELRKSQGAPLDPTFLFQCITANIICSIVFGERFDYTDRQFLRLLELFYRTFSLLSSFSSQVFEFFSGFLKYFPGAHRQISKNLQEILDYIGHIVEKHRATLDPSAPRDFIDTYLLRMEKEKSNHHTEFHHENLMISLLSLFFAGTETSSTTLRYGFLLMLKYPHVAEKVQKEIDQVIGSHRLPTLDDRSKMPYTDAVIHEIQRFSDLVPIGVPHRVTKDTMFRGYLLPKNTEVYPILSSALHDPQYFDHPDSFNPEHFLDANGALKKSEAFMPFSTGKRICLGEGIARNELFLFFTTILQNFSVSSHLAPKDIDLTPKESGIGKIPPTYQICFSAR

Cytochrome P450 2B1 [4] = target: T5, Cytochrome P450 2B1 (Rattus norvegicus, UniProt P00176); assay: as §2
T5 sequence (P00176 whole entry): T4 sequence (P00176 whole entry)

CYP2B4 = target: T6, CYP2B4 (Oryctolagus cuniculus, UniProt P00178); assay: (§3) Mechanism based inhibition of rabbit cytochrome P450 CYP2B4; details: rabbit
T6 sequence (P00178 whole entry): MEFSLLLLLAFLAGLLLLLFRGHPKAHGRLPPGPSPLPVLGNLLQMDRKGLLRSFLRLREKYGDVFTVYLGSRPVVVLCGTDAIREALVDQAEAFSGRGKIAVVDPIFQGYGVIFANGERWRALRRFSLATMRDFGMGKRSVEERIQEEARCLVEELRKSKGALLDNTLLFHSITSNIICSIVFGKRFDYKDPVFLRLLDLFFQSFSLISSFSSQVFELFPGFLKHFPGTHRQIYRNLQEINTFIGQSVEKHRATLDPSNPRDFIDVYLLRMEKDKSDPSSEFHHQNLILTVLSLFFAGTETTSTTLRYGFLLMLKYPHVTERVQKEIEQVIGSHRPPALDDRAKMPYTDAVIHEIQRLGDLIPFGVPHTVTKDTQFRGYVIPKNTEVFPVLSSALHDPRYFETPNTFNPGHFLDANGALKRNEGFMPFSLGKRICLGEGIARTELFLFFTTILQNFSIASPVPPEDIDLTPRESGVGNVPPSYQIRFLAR

Cytochrome P450 2B4 = target: T7, Cytochrome P450 2B4 (Oryctolagus cuniculus, UniProt P00178); assay: as §3
T7 sequence (P00178 whole entry): T6 sequence (P00178 whole entry)

CYP2B1 [5] = target: T4, CYP2B1; assay: (§4) Mechanism based inhibition of rat cytochrome P450 CYP2B1; details: rat
Cytochrome P450 2B1 [6] = target: T5, Cytochrome P450 2B1; assay: as §4
CYP1A1 [7] = target: CYP1A1 (Homo sapiens, UniProt P04798); assay: as §1; details: human, probe 7-ethoxyresorufin (O-deethylation, EROD)
CYP1A2 = target: T8, CYP1A2 (Homo sapiens, UniProt P05177); assay: (§5) Mechanism based inhibition of human cytochrome P450 1A2 measured by 7-methoxyresorufin O-demethylation (MROD); details: human, probe 7-methoxyresorufin (O-demethylation, MROD)
T8 sequence (P05177 whole entry): T2 sequence (P05177 whole entry)

Cytochrome P450 1A2 [8] = target: T2, Cytochrome P450 1A2; assay: as §5
Cytochrome P450 1A1 [9] = target: T9, Cytochrome P450 1A1 (Rattus norvegicus, UniProt P00185); assay: Mechanism based inhibition of rat cytochrome P450 CYP1A1
T9 sequence (P00185 whole entry): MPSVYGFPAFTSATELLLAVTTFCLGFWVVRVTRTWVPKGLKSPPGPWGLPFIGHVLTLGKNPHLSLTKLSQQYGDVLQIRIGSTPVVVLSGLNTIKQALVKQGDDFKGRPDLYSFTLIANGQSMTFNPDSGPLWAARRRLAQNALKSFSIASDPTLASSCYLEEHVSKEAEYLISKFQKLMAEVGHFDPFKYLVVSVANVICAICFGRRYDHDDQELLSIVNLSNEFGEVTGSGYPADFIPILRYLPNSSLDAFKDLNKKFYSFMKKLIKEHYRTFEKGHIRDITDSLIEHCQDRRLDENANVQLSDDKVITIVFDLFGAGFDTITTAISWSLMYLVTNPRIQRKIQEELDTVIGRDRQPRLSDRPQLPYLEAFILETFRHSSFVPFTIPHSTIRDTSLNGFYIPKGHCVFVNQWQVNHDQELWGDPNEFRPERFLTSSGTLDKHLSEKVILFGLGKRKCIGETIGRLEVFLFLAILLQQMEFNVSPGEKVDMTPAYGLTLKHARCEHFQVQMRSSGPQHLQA

Cytochrome P450 3A11 = Cytochrome P450 3A11 (Mus musculus, UniProt Q64459); assay: Mechanism based inhibition of mouse cytochrome P450 CYP3A11
[10] = target: Cytochrome P450 11B1, mitochondrial (Bos taurus, UniProt P15150); assay: Mechanism based inhibition of bovine cytochrome P450 CYP11B1; details: cattle
CYP1A1 [11] = target: T10, CYP1A1 (Rattus norvegicus, UniProt P00185); assay: (§6) Mechanism based inhibition of rat cytochrome P450 CYP1A1 measured by ethoxyresorufin O-deethylation warfarin R-6 and R-8 hydroxylation; details: rat
T10 sequence (P00185 whole entry): T9 sequence (P00185 whole entry)

Cytochrome P450 1A1 [12] = target: T9, Cytochrome P450 1A1; assay: as §6

Chain of Cytochrome P450 11B1, mitochondrial (P15150 whole entry): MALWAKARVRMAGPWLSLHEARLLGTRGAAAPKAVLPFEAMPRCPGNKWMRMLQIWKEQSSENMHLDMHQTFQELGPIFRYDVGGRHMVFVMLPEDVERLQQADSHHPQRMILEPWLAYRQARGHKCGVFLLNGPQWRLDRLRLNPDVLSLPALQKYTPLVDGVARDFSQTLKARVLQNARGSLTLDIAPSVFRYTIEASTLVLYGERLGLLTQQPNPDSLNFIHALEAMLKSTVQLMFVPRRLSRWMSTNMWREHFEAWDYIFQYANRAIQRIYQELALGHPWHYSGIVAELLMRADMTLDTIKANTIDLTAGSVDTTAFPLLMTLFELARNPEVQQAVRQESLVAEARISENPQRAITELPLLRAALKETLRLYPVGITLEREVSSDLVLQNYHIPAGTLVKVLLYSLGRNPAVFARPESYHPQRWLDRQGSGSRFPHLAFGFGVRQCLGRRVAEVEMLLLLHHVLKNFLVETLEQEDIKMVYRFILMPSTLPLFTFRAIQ
Chain of Cytochrome P450 3A11 (Q64459 whole entry): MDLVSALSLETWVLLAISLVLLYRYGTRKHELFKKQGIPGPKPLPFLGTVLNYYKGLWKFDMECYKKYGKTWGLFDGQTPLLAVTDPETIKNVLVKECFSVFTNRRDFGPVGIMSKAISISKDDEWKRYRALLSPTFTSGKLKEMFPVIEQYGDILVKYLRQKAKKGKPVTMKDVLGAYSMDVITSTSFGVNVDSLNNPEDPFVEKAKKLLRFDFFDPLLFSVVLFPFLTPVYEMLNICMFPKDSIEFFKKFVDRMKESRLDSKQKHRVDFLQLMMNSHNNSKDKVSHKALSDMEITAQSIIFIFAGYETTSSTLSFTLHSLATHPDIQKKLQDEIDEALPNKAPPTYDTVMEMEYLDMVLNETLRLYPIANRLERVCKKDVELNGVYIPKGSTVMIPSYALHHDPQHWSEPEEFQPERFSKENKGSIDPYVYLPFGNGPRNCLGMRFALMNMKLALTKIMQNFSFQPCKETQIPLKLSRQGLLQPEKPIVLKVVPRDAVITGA

Compound: C#Cc1ccc2ccccc2c1
mechanism based inhibition (Cytochrome P450 1A1 [1]): Cytochrome P450 mechanistic inhibitor: PMID 9760279
mechanism based inhibition (Cytochrome P450 1A2 [2]): Cytochrome P450 mechanistic inhibitor: PMID 9760279
mechanism based inhibition (Cytochrome P450 1B1): Cytochrome P450 mechanistic inhibitor: PMID 9760279
kinact (CYP2B1 [3]): 0.0138 s⁻¹
Ki (Cytochrome P450 2B1 [4]): 80 nM

Compound: Cn1c2ccccc2c2ccccc21
kinact (CYP2B4): 0.0035 s⁻¹
Ki (Cytochrome P450 2B4): 23000 nM
kinact (CYP2B1 [5]): 0.0233 s⁻¹
Ki (Cytochrome P450 2B1 [6]): 5200 nM

Compound: C=C(C)[C@@H]1CCC(C)=C[C@H]1c1c(O)cc(CCCCC)cc1O [CANNABIDIOL]
mechanism based inhibition (Cytochrome P450 3A11): Cytochrome P450 mechanistic inhibitor: PMID 9778318

Compound: C=CC[C@]12CC[C@H]3[C@@H](CCC4=CC(=O)CC[C@@]43C)[C@@H]1CC[C@@H]2C(C)=O
mechanism based inhibition [10]: Cytochrome P450 mechanistic inhibitor: PMID 8645613

Further lines, with some results ahead:

kinact (CYP1A1 [7]): 0.00667 s⁻¹
Ki (Cytochrome P450 1A1 [1]): 220 nM
kinact (CYP1A2): 0.00167 s⁻¹
Ki (Cytochrome P450 1A2 [8]): 13 nM
Compound: CC#Cc1ccc(-c2ccccc2)cc1
mechanism based inhibition (Cytochrome P450 1A1 [1]): Cytochrome P450 mechanistic inhibitor: PMID 9760279
mechanism based inhibition (Cytochrome P450 1A2 [2]): Cytochrome P450 mechanistic inhibitor: PMID 9760279
mechanism based inhibition (Cytochrome P450 1B1): Cytochrome P450 mechanistic inhibitor: PMID 9760279
mechanism based inhibition (Cytochrome P450 1A1 [9]): Cytochrome P450 mechanistic inhibitor: PMID 9074808

kinact (CYP1A1 [11]): 0.00867 s⁻¹
Ki (Cytochrome P450 1A1 [12]): 2700 nM
Compound: O=C(NCCc1ccc([N+](=O)[O-])cc1)C(Cl)Cl
